{
  "source": "patent US10695330B2",
  "about": "“Methods of treatment” (Global Blood Therapeutics, Inc., priority 2015, dated 2020)",
  "key": {"[1]": {"test_system": "activated neutrophils", "experiment": "Oxidative burst in activated neutrophils", "format": "cell-based", "conditions": "in vitro", "excerpt": "(§1) Reactive oxygen species (ROS) released from activated white blood cells cause lung injury as well as fibrotic changes in patients with IPF. […] Thus, the compounds described herein could also provide a method to inhibit the adverse effects of inflammation in a patient. Reduction in systemic pro-inflammatory cytokines (tumor necrosis alpha and interleukin-6) also has the potential to exert a broad anti-inflammatory effect which would supplement the beneficial effect of alleviation of hypoxemia via increased hemoglobin-O2 affinity."}, "[2]": {"test_system": "macrophages", "experiment": "Production of TNF-α and IL-6 by macrophages", "format": "cell-based", "conditions": "in vitro", "excerpt": "as §1"}, "[3]": {"molecular_target": "T1, Hb (Mus musculus, UniProt P01942)", "T1 construct": "from tissue; host or cells: whole blood (red blood cells) of dosed C57BL / C57BL/6J mice", "T1 sequence (P01942 2-142 limits assumed)": "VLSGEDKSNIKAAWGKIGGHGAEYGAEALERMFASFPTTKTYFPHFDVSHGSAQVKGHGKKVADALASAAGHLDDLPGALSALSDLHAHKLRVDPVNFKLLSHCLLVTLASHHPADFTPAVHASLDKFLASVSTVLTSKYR", "T1 sequence (P02088 2-147 partner limits assumed)": "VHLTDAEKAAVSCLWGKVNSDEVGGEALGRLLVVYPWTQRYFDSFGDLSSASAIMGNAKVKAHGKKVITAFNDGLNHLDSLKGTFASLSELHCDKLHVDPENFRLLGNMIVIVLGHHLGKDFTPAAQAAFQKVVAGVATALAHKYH", "experiment": "LPS-induced acute lung injury mouse model: PK/PD (Hb occupancy, hemoximetry)", "format": "in vivo", "conditions": "LPS-induced ALI mice", "procedure": "Adult, 8-10-week-old male C57BL/6J mice (Jackson Laboratory, Bar Harbor, Me.), were anesthetized with isoflurane, injected with 100 μg LPS (Sigma, St. Louis, Mo.) in 100 μL PBS by direct intratracheal injection. After 24 hours, mice were given Compound 1 (70 or 140 mg/kg formulated in dimethylacetamide, polyethylene glycol 400 (PEG400) and 40% cavitron in a ratio of 1:5:4, respectively) or vehicle only (5 μL/g) by oral gavage 2 hours prior to placement in a hypoxia chamber. Mice were exposed to either 10 or 5% O2 for 4 hours. Oxygen saturation (SaO2) was measured with a pulse oximeter (STARR Life Sciences, Oakmont, Pa.) at baseline and hourly during hypoxic exposure. During hypoxic exposure, mice were monitored continuously and a moribund check was done every 15 minutes. Time to death was assessed by time to moribund status. Mice were determined to be moribund if they could not right themselves when placed in a supine position.\nBlood was collected by cardiac puncture in the hypoxic chamber. Blood gases were measured using the i-STAT portable analyzer within the hypoxic environment (Abaxis, Union City, Calif.). Remaining blood samples were used for hemoximetry and pharmacokinetic analysis. For sample collection, mice were euthanized with pentobarbital overdose. A bronchoaleveolar lavage (BAL) was performed with 900 uL Saline. Blood was collected by retro orbital puncture, and then spun to collect plasma. Lungs were removed and flash frozen. All samples were stored at −80° C. until further study. BAL inflammatory cell counts and differentials were determined manually after staining cytospins with DiffQuik. BAL protein was measured using a Pierce BCA Protein Assay Kit (Thermo Scientific, Waltham, Mass.).\nHemoximetry was used to determine the PD effect of Compound 1 in whole blood from dosed mice as described above. Representative oxygen equilibrium curves (OECs) of whole blood obtained from mice dosed with Compound 1 (blue and red lines) or vehicle only (black line) are shown in FIG. 3A."}, "[4]": {"molecular_target": "T1, Hb", "experiment": "Bleomycin mouse model: PK/PD (blood and plasma concentrations, Hb occupancy, hemoximetry)", "format": "in vivo", "conditions": "bleomycin treated mice; for calculated Hb occupancy: 4 hours after last dose", "procedure": "Compound 1 (formulated in dimethylacetamide: polyethylene glycol 400 (PEG400): 40% cavitron at a 1:5:4 ratio) was administered at either low dose (first day 50 mg/kg followed by 40 mg/kg daily) or high dose (first day 150 mg/kg followed by 85 mg/kg daily) via oral gavage to bleomycin treated mice once daily from day 8 to day 15. Animals in group 1 were administered vehicle via oral gavage. The dosing volume was 200 μL. The study animals were sacrificed on day 15 at 4 hours post final dose.\nSamples for hemoximetry and pharmacokinetics (PK) were taken 4 hours following the last dose of the dosing regimen. BAL fluid was collected from the lungs of the animals by lavaging the lung with 1 ml Hanks balanced salt media (HBSS). Lungs were harvested from each animal and weighed. They were then inflated by ˜0.5 mL of 10% NBF and fixed in a formalin container for subsequent histopathological analysis.\nCompound 1 blood and plasma concentrations were determined by LC-MS 4 hours after the last dose. Both standard and QC blood samples were pre-incubated at 37° C. for 1 hr. After incubation, all standard and QC samples were diluted with 2-fold volume of water to match with the condition of samples. Plasma standard and QC were proceeding without pre-incubation. […] The peak area of m/z 341->203 product ion (Compound 1) was measured against that of the m/z 345->159 product ion 2-hydroxy-6-((2-(1-(propan-2-yl-d7)-1H-pyrazol-5-yl)pyridin-3-yl)methoxy)benzaldehyde in positive ion mode. […]\nHemoglobin occupancy by Compound 1 was calculated by dividing the concentration of Compound 1 in RBCs by the Hb concentration in RBCs (5 mM). RBC was calculated from whole blood and plasma concentration data using the following equation: […]\nHemoximetry measurements (PD analysis) were conducted in a Hemox Analyzer (TCS Scientific Corporation, New Hope, Pa.). […] The absorbance at wavelengths that correspond to the isosbestic point (570 nm) and deoxy Hb (560 nm) was recorded as a function of the sample O2 tension (pO2). […]"}},
  "data": [
    {"smiles": "O=Cc1c(O)cccc1OC[C@@H]1CCCCN1C(=O)c1cccnc1", "note": "[Compound 1, (S)-2-hydroxy-6-((1-nicotinoylpiperidin-2-yl)methoxy)benzaldehyde]", "values": [
      {"measurement": "anti-oxidative activity (oxidative burst)", "setting": "[1]", "value": "displayed anti-oxidative"},
      {"measurement": "anti-inflammatory activity (TNF-α and IL-6 production)", "setting": "[2]", "value": "anti-inflammatory activity"},
      {"measurement": "Hb occupancy", "setting": "[3]; 70 mg/kg oral", "value": "~19", "unit": "%"},
      {"measurement": "Hb occupancy", "setting": "[3]; 140 mg/kg oral", "value": "~27", "unit": "%"},
      {"measurement": "Hb O2 affinity (left-shift in the OEC) in whole blood from dosed mice", "setting": "[3]; 70 or 140 mg/kg oral, vs vehicle", "value": "dose-dependent increase in Hb O2 affinity relative to control"},
      {"measurement": "calculated Hb occupancy", "setting": "[4]; high dose regimen (150 then 85 mg/kg daily)", "value": 36.7, "unit": "%"},
      {"measurement": "shift in the OEC (Hb-oxygen binding affinity)", "setting": "[4]; low and high dose", "value": "significant left shift in the OEC in a dose-response manner"},
      {"measurement": "calculated Hb occupancy", "setting": "[4]; low dose regimen (50 then 40 mg/kg daily)", "value": 18.0, "unit": "%"}
    ]}
  ]
}
